From US9028856B2, “Synergistic pesticide compositions” (priority 2008, dated 2015)

Tests used:
[1] = test system: Musca domestica, susceptible strain WHO(N); test: Efficacy of formulations on surfaces (glazed/unglazed tiles), house flies, continuous exposure; assay type: in vivo; details: strain WHO(N) susceptible, acetone solutions on glazed tiles, mean of three replicates
Description: A flat fan nozzle (type SS 8003-E) in a spray cabin was moved automatically over a defined area where the solutions were sprayed very evenly onto the surfaces. The formulation was mixed with water to give a concentration which corresponded to the desired quantity of a.i./m^2. A defined quantity of this solution was sprayed onto the area (nominal 350 liter/ha=0.77 ml per surface).
All surfaces were provided with talcum-coated glass rings (diameter 9.5 cm, height 5.5 cm) one day later.
The test insects were anesthetized with CO2, 20 individuals were placed onto the treated surfaces and the glass ring was covered with wire gauze ring.
Knock down was determined after 15 and 30′, 1, 2, 4 and 6 hours, mortality after 1 day exposure.
Each test consisted of at least one replicate and any additional replicates are noted.
Test Insects: House flies (Musca domestica) of both sexes, susceptible strain WHO(N) and resistant strain Reichswald
Evaluation: Mortality was evaluated cumulatively at different times. […]
Test Insects: Culex quinquefasciatus (adults) (3 minutes exposure time according to USDA Petri Dish Method), Musca domestica (adults), susceptible and resistant strain, Blattella germanica (males), Cimex lectularius (adults) (all: continuous exposure time)
Application: The EC formulation (diluted with water 1:9) were applied as 0.85 ml solutions onto glazed tiles (15 cm×15 cm)
Evaluation: Knock down after 15, and 30 minutes, 1, 2, 3, 4, 6 and 24 hours (mortality)
Test Insects: Culex quinquefasciatus (adults, susceptible) (3 minutes exposure time according to USDA Petri Dish Method), Musca domestica (adults, susceptible and resistant), Blattella germanica (males, susceptible) (both: continuous exposure time)
Formulations: Insecticide with or without 10% Compound A (as EC), to be diluted with water (1 part formulation+9 parts water)
Evaluation: Knock down after 3, 9 (mosquitoes only), 15, and 30 minutes, 1, 2, 3, 4 and 24 hours (mortality) […]

[2] = test system: Musca domestica, susceptible strain WHO(N); test: Contact efficacy against houseflies on filter papers in glass dishes; assay type: in vivo; details: % a.i. conc. in acetone on filter papers, Table 97
Description: Male Musca domestica, susceptible strain WHO(N), were used.
A solution of the active ingredient in acetone was prepared. A concentration row was made. After evaporation of the acetone (30′), the dishes were closed by a glass lid and transferred into the test room. One day later twenty flies, anaesthetized with CO2, are counted into each dish. At regular intervals, knock down was recorded (cumulatively). Each test consisted of one replicate. […]

Aedes aegypti mosquito = test: USDA Petri Dish Method, 3 min exposure to treated glazed tile; assay type: in vivo; details: Table 37, resmethrin/adjuvant in acetone, glazed tile, 3 min exposure
Procedure, shortened: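 Resmethrin or clothianidin in acetone, with or without adjuvant, applied to glazed tile and dried overnight; twenty 4-6 day old female mosquitoes exposed 3 minutes, then moved to clean index card. Knockdown scored at intervals over hours; mortality at 24 hours with sucrose provided; at least three replicates.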

[3] = test system: Culex quinquefasciatus mosquito; test: USDA Petri Dish Method, 3 min exposure to treated glazed tile (twenty 4-6 day old females); assay type: in vivo; details: in vivo
Description: MATERIALS AND METHODS: Solutions of resmethrin at 1 and 0.5% AI were prepared with and without adjuvant in acetone. […] USDA Petri Dish Method was used as initial screening protocol. Twenty, 4-6 day old female Culex quinquefasciatus mosquitoes were exposed to each treatment for 3 minutes and then moved to a clean untreated white paper index card. Treatments were replicated a minimum of three times. Mosquito knockdown was evaluated at 3 minute intervals for the first 15 minutes and then at 5 minute intervals for the remainder of an hour. A small cotton ball soaked in sucrose solution was added on the screen top of the petri-dish as a drinking source after the 2 hour evaluation. Mortality was evaluated at 24 hours after exposure.
Treatments were allowed to dry overnight. USDA Petri Dish Method was used as initial screening protocol. Twenty, 4-6 day old female Culex mosquitoes were exposed to each treatment for 3 minutes and then moved to a clean untreated white paper index card. Treatments were replicated a minimum of three times. Mosquito knockdown was evaluated at various intervals through 3 hours after exposure. A small cotton ball soaked in sucrose solution was added on the screen top of the petri-dish as a drinking source. Mortality was evaluated at 24 hours after exposure.
Treatments were allowed to dry overnight. USDA Petri Dish Method was used as initial screening protocol. Twenty, 4-6 day old female Culex quinquefasciatus mosquitoes were exposed to each treatment for 3 minutes and then moved to a clean untreated white paper index card. Treatments were replicated a minimum of three times. Mosquito knockdown was evaluated at various intervals through 2 hours after exposure. A small cotton ball soaked in sucrose solution was then added on the screen top of the petri-dish as a drinking source. Mortality was evaluated at 24 hours after exposure.
Treatments were allowed to dry overnight. USDA Petri Dish Method was used as initial screening protocol. Twenty, 4-6 day old female Culex quinquefasciatus mosquitoes were exposed to each treatment for 3 minutes and then moved to a clean untreated white paper index card. Treatments were replicated a minimum of three times. Mosquito knockdown was evaluated at various hourly intervals. A small cotton ball soaked in sucrose solution was added on the screen top of the petri-dish as a drinking source after 2 hours. Mortality was evaluated at 24 hours after exposure.

[4] = assay type: physicochemical; details: classified from Log P
From the text: As used herein, a “partition coefficient” is defined as the ratio of concentrations of an un-ionized compound between solutions of water and octanol. To measure the partition coefficient of ionizable solutes, the pH of the aqueous phase is adjusted such that the predominant form of the compound is un-ionized. The logarithm of the ratio of the concentrations of the un-ionized solute in the solvents is referred to herein as log P or log K ow.
As noted herein, the octanol-water partition coefficient may be used to identify the cuticular penetration of a particular active ingredient. One factor in the relative speed through which any insecticide acts is the insecticide's ability to cross the insect cuticle. A determining factor for cuticle penetration is Log K ow, also known as Log P. Log K ow (Log P) is the octanol-water partition coefficient for a neutral molecule. Log P is used hereinfurther, but, as noted above, the term is synonymous with Log K ow. As previously noted, the cuticular penetration of any particular active ingredient as against a plant cuticle is not indicative of that same active ingredient's ability to penetrate an insect cuticle.
The cuticular penetration of a compound is classified as “INTERMEDIATE” when the Log P value is between about 2.0 and about 4.0.

SMILES | % knock down after ([2]; 15′) | % knock down after ([2]; 30′) | % knock down after ([2]; 1 h) | % knock down after ([2]; 1.5 h) | % knock down after ([2]; 2 h) | % knock down after ([2]; 3 h) | % knock down after ([2]; 4 h) | % knock down after ([2]; 6 h) | % knock down after ([2]; 1 d) | further results
CC1(C)[C@H](C(=O)O[C@H](C#N)c2cccc(Oc3ccccc3)c2)[C@@H]1C=C(Br)Br [0.001% DTM] | – | – | – | – | – | – | – | – | – | % Mortality after ([1]; 15′): 2%; % Mortality after ([1]; 30′): 18%; % Mortality after ([1]; 1 h): 58%; % Mortality after ([1]; 2 h): 80%; % Mortality after ([1]; 3 h): 88%; % Mortality after ([1]; 24 h): 92%
CC1(C)C(C=C(Br)Br)C1C(=O)OC(C#N)c1cccc(Oc2ccccc2)c1 (stereo not shown) [0.0016% DTM] | 0% | 5% | 70% | 90% | 100% | 100% | 100% | 100% | 95% | –
CC1(C)[C@H](C(=O)O[C@H](C#N)c2cccc(Oc3ccccc3)c2)[C@@H]1C=C(Br)Br [0.00032% DTM] | 0% | 0% | 5% | 30% | 50% | 65% | 65% | 60% | 95% | –
CC1(C)[C@H](C(=O)O[C@H](C#N)c2cccc(Oc3ccccc3)c2)[C@@H]1C=C(Br)Br [0.000064% DTM] | 0% | 0% | 0% | 0% | 0% | 0% | 0% | 15% | 80% | –
CC1(C)[C@H](C(=O)O[C@H](C#N)c2cccc(Oc3ccccc3)c2)[C@@H]1C=C(Br)Br [0.0000128% DTM] | 0% | 0% | 0% | 0% | 0% | 0% | 0% | 15% | 70% | –
CC(C)=CC1C(C(=O)OCc2coc(Cc3ccccc3)c2)C1(C)C (stereo not shown) [Resmethrin (1%)] | – | – | – | – | – | – | – | – | – | Average % Knockdown & Mortality after 3 min (Aedes aegypti mosquito; 3 min): 66%; Average % Knockdown & Mortality after 15 min (Aedes aegypti mosquito; 15 min): 100%; Average % Knockdown & Mortality after 30 min (Aedes aegypti mosquito; 30 min): 100%; Average % Knockdown & Mortality after 60 min (Aedes aegypti mosquito; 60 min): 100%; Average % Knockdown & Mortality after 24 hr (Aedes aegypti mosquito; 24 hr): 100%; Average % Knockdown & Mortality after 3 min [3]: 0%; Average % Knockdown & Mortality after 15 min [3]: 2%; Average % Knockdown & Mortality after 30 min [3]: 13%; Average % Knockdown & Mortality after 60 min [3]: 11%; Average % Knockdown & Mortality after 2 hr [3]: 2%; Average % Knockdown & Mortality after 24 hr [3]: 4%
CCOP(=S)(OCC)Oc1nc(Cl)c(Cl)cc1Cl [chlorpyrifos] | – | – | – | – | – | – | – | – | – | Likelihood of Direct Insect Cuticular Penetration [4]: Fast (classified as “FAST” when it has a Log P value of about >4.0)
CCOP(=S)(OCC)Oc1cc(C)nc(C(C)C)n1 [diazinon] | – | – | – | – | – | – | – | – | – | Likelihood of Direct Insect Cuticular Penetration [4]: Intermediate (classified as “INTERMEDIATE” when the Log P value is between about 2.0 and about 4.0)
